Experimental data from US11083729B2, “Methods of treating cancer with small molecule NF-κB inhibitors” (ImmuneTarget, Inc., priority 2017, dated 2021).

Target: T1, c-Rel protein (Homo sapiens, UniProt Q04864)
T1 sequence (Q04864 1-619): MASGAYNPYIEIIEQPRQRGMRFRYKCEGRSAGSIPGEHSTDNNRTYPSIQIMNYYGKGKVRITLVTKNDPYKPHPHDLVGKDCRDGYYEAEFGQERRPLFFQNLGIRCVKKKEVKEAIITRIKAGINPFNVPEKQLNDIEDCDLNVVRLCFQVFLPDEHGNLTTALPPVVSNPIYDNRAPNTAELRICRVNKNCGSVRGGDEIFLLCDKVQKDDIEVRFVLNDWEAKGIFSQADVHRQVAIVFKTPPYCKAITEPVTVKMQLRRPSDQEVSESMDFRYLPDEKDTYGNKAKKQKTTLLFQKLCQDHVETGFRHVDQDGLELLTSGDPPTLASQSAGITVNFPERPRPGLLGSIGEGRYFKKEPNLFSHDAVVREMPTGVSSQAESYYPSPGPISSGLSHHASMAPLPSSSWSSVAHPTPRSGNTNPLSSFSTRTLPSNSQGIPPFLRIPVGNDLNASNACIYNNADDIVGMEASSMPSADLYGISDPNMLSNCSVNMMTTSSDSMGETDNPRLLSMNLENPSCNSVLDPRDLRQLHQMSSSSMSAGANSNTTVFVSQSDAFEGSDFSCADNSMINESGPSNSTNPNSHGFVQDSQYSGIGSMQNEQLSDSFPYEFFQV
Assay: Electrophoretic Mobility Shift Assay (EMSA), c-Rel binding to CD28RE oligonucleotide
Conditions: 10 nM c-Rel protein
Experimental: DNA binding reaction (20 μL) was carried out in 1×DNA Binding Buffer (10 mM Tris, 40 mM NaCl, 1 mM EDTA, 4% glycerol) with 10 nM c-Rel protein and 0.5 ng phosphor-labeled CD28RE oligonucleotide for 10 minutes at room temperature in 96-well plates. Test compounds, in serial dilutions, were added into each well, and further incubated for 15 minutes before loading onto native 5% polyacrylamide gel. Electrophoresis proceeded for 2.5 hours at 160V. Radioactive signals were quantified using Phospho-Imager. IC50 of compounds of example 1 to 75 were determined by quantifying the intensity of Rel/NF-κB inhibition in EMSA using phospho-imager. An example of EMSA data of the present invention is shown for compound 6 in FIG. 2.

## CCCCOc1ccc2cc3c(=O)[nH]c(=O)nc-3oc2c1F [compound 45]
  IC50: < 500 nM

## COCCOCCCOc1ccc2cc3c(=O)[nH]c(=O)nc-3oc2c1Cl [compound 72]
  IC50: < 1000 nM

## O=c1nc2oc3ccccc3cc-2c(=O)[nH]1 [compound 9, 2H-chromeno[2,3-d]pyrimidine-2,4(3H)-dione]
  IC50: < 5000 nM

## COc1ccc2cc3c(=O)[nH]c(=O)nc-3oc2c1 [compound 6, 8-methoxy-2H-chromeno[2,3-d]pyrimidine-2,4(3H)-dione]
  IC50: < 1000 nM

## CCOc1ccc2cc3c(=O)[nH]c(=O)nc-3oc2c1Cl [compound 22, 9-chloro-8-ethoxy-2H-chromeno[2,3-d]pyrimidine-2,4(3H)-dione]
  IC50: < 1000 nM

## COCCOCCCOc1ccc2cc3c(=O)[nH]c(=O)nc-3oc2c1F [compound 73]
  IC50: < 1000 nM

## COc1ccc2oc3nc(=O)[nH]c(=O)c-3cc2c1 [compound 10, 7-methoxy-2H-chromeno[2,3-d]pyrimidine-2,4(3H)-dione]
  IC50: < 1000 nM

## O=C(O)CCCOc1ccc2cc3c(=O)[nH]c(=O)nc-3oc2c1Cl [compound 55]
  IC50: < 5000 nM

## O=C(O)CCCCCOc1ccc2cc3c(=O)[nH]c(=O)nc-3oc2c1Cl [compound 53, 6-((9-chloro-2,4-dioxo-3,4-dihydro-2H-chromeno[2,3-d]pyrimidin-8-yl)oxy)hexanoic acid]
  IC50: < 5000 nM

## CCCCCOc1cc2oc3nc(=O)[nH]c(=O)c-3cc2cc1F [compound 30]
  IC50: < 500 nM

## COc1cc(OC)c2cc3c(=O)[nH]c(=S)nc-3oc2c1 [compound 18, 6,8-dimethoxy-2-thioxo-2H-chromeno[2,3-d]pyrimidin-4(3H)-one]
  IC50: < 500 nM

## CC(C)(C)CCOc1cc2oc3nc(=O)[nH]c(=O)c-3cc2cc1F [compound 34]
  IC50: < 500 nM

## COc1cccc2cc3c(=O)[nH]c(=O)nc-3oc12 [compound 1, 9-methoxy-2H-chromeno[2,3-d]pyrimidine-2,4(3H)-dione]
  IC50: < 2000 nM

## CCCCCCCOc1ccc2cc3c(=O)[nH]c(=O)nc-3oc2c1Cl [compound 42]
  IC50: < 500 nM

## COCCCCOc1cc2oc3nc(=O)[nH]c(=O)c-3cc2cc1Cl [compound 69]
  IC50: < 1000 nM

## CCCCCCOc1ccc2cc3c(=O)[nH]c(=O)nc-3oc2c1Cl [compound 44]
  IC50: < 500 nM

## CC(C)(C)CCOc1ccc2cc3c(=O)[nH]c(=O)nc-3oc2c1Cl [compound 41]
  IC50: < 500 nM

## CC(C)CCCOc1cc2oc3nc(=O)[nH]c(=O)c-3cc2cc1F [compound 35]
  IC50: < 1000 nM

## CCOc1cc2oc3nc(=O)[nH]c(=O)c-3cc2cc1F [compound 28, 8-ethoxy-7-fluoro-2H-chromeno[2,3-d]pyrimidine-2,4(3H)-dione]
  IC50: < 500 nM

## CCCCn1c(=O)nc2oc3cc(OCC)c(Cl)cc3cc-2c1=O [compound 26, 3-butyl-7-chloro-8-ethoxy-2H-chromeno[2,3-d]pyrimidine-2,4(3H)-dione]
  IC50: < 1000 nM

## CCCCCCCOc1cc2oc3nc(=O)[nH]c(=O)c-3cc2cc1F [compound 32]
  IC50: < 500 nM

## CCCCCCOc1cc2oc3nc(=O)[nH]c(=O)c-3cc2cc1Cl [compound 37]
  IC50: < 500 nM

## Cc1ccc2cc3c(=O)[nH]c(=S)nc-3oc2c1 [compound 17, 8-methyl-2-thioxo-2H-chromeno[2,3-d]pyrimidin-4(3H)-one]
  IC50: < 500 nM

## Cc1ccc2cc3c(=O)[nH]c(=O)nc-3oc2c1 [compound 12, 8-methyl-2H-chromeno[2,3-d]pyrimidine-2,4(3H)-dione]
  IC50: < 1000 nM

## CCCCCCOc1cc2oc3nc(=O)[nH]c(=O)c-3cc2cc1F [compound 31]
  IC50: < 500 nM

## COc1cc(Cl)cc2cc3c(=O)[nH]c(=S)nc-3oc12 [compound 7, 7-chloro-9-methoxy-2-thioxo-2H-chromeno[2,3-d]pyrimidin-4(3H)-one]
  IC50: < 2000 nM

## CCCCCOc1ccc2cc3c(=O)[nH]c(=O)nc-3oc2c1Cl [compound 39]
  IC50: < 500 nM

## CCCCOc1ccc2cc3c(=O)[nH]c(=O)nc-3oc2c1Cl [compound 43]
  IC50: < 500 nM

## O=C(O)COc1ccc2cc3c(=O)[nH]c(=O)nc-3oc2c1Cl [compound 56]
  IC50: < 5000 nM

## CCOc1ccc2cc3c(=O)[nH]c(=O)nc-3sc2c1 [compound 49, 8-ethoxy-2H-thiochromeno[2,3-d]pyrimidine-2,4(3H)-dione]
  IC50: < 1000 nM

## CC(C)COc1ccc2cc3c(=O)[nH]c(=O)nc-3oc2c1 [compound 23, 8-isobutoxy-2H-chromeno[2,3-d]pyrimidine-2,4(3H)-dione]
  IC50: < 1000 nM

## CCCOc1ccc2cc3c(=O)[nH]c(=O)nc-3oc2c1 [compound 19, 8-propoxy-2H-chromeno[2,3-d]pyrimidine-2,4(3H)-dione]
  IC50: < 1000 nM

## COCCOCCOc1cc2oc3nc(=O)[nH]c(=O)c-3cc2cc1Cl [compound 64]
  IC50: < 1000 nM

## COCCOCCOc1ccc2cc3c(=O)[nH]c(=O)nc-3oc2c1F [compound 63]
  IC50: < 1000 nM

## COCCOCCOc1cc2oc3nc(=O)[nH]c(=O)c-3cc2cc1F [compound 65]
  IC50: < 1000 nM

## CCCc1cc2oc3nc(=O)[nH]c(=O)c-3cc2cc1Cl [compound 25, 7-chloro-8-propyl-2H-chromeno[2,3-d]pyrimidine-2,4(3H)-dione]
  IC50: < 1000 nM

## COc1cc(Cl)cc2cc3c(=O)[nH]c(=O)nc-3oc12 [compound 3, 7-chloro-9-methoxy-2H-chromeno[2,3-d]pyrimidine-2,4(3H)-dione]
  IC50: < 2000 nM

## CCCCCCOc1ccc2cc3c(=O)[nH]c(=O)nc-3oc2c1F [compound 46]
  IC50: < 500 nM

## CC(C)CCOc1cc2oc3nc(=O)[nH]c(=O)c-3cc2cc1F [compound 33]
  IC50: < 500 nM

## COCCOCCOc1ccc2cc3c(=O)[nH]c(=O)nc-3oc2c1 [compound 61, 8-(2-(2-methoxyethoxy)ethoxy)-2H-chromeno[2,3-d]pyrimidine-2,4(3H)-dione]
  IC50: < 1000 nM

## O=c1[nH]c(=S)nc2oc3cc(O)ccc3cc1-2 [compound 16, 8-hydroxy-2-thioxo-2H-chromeno[2,3-d]pyrimidin-4(3H)-one]
  IC50: < 500 nM

## COc1ccc2oc3nc(=S)[nH]c(=O)c-3cc2c1 [compound 15, 7-methoxy-2-thioxo-2H-chromeno[2,3-d]pyrimidin-4(3H)-one]
  IC50: < 500 nM

## COCCOCCOc1ccc2cc3c(=O)[nH]c(=O)nc-3oc2c1Cl [compound 62]
  IC50: < 1000 nM

## CCCCOc1ccc2cc3c(=O)[nH]c(=O)nc-3oc2c1 [compound 50]
  IC50: < 1000 nM

## O=c1nc2oc3cc(O)ccc3cc-2c(=O)[nH]1 [compound 11, 8-hydroxy-2H-chromeno[2,3-d]pyrimidine-2,4(3H)-dione]
  IC50: < 1000 nM

## CC(C)CCCOc1ccc2cc3c(=O)[nH]c(=O)nc-3oc2c1F [compound 47]
  IC50: < 1000 nM

## COCCCCOc1ccc2cc3c(=O)[nH]c(=O)nc-3oc2c1Cl [compound 66, 9-chloro-8-(4-methoxybutoxy)-2H-chromeno[2,3-d]pyrimidine-2,4(3H)-dione]
  IC50: < 1000 nM

## CCCOc1cc2oc3nc(=O)[nH]c(=O)c-3cc2cc1Cl [compound 20, 7-chloro-8-propoxy-2H-chromeno[2,3-d]pyrimidine-2,4(3H)-dione]
  IC50: < 1000 nM

## CC(C)COc1cc2oc3nc(=O)[nH]c(=O)c-3cc2cc1Cl [compound 38]
  IC50: < 500 nM

## CC(=O)OCCCCOc1ccc2cc3c(=O)[nH]c(=O)nc-3oc2c1 [compound 51]
  IC50: < 1000 nM

## COc1cc(Br)cc2cc3c(=O)[nH]c(=O)nc-3oc12 [compound 4, 7-bromo-9-methoxy-2H-chromeno[2,3-d]pyrimidine-2,4(3H)-dione]
  IC50: < 2000 nM

## CCOc1cccc2cc3c(=O)[nH]c(=O)nc-3oc12 [compound 2, 9-ethoxy-2H-chromeno[2,3-d]pyrimidine-2,4(3H)-dione]
  IC50: < 2000 nM

## CCCCCCOc1ccc2cc3c(=O)[nH]c(=O)nc-3oc2c1 [compound 21, 8-(n-hexyloxy)-2H-chromeno[2,3-d]pyrimidine-2,4(3H)-dione]
  IC50: < 1000 nM

## CCCCn1c(=O)nc2oc3cc(OCC)ccc3cc-2c1=O [compound 24, 3-(n-butyl)-8-ethoxy-2H-chromeno[2,3-d]pyrimidine-2,4(3H)-dione]
  IC50: < 1000 nM

## COCCOCCCOc1cc2oc3nc(=O)[nH]c(=O)c-3cc2cc1F [compound 75, 7-fluoro-8-(3-(2-methoxyethoxy)propoxy)-2H-chromeno[2,3-d]pyrimidine-2,4(3H)-dione]
  IC50: < 1000 nM

## CC(=O)OCCCCCCOc1ccc2cc3c(=O)[nH]c(=O)nc-3oc2c1Cl [compound 58]
  IC50: < 5000 nM

## COCCOCCCOc1cc2oc3nc(=O)[nH]c(=O)c-3cc2cc1Cl [compound 74]
  IC50: < 1000 nM

## COCCCCOc1ccc2cc3c(=O)[nH]c(=O)nc-3oc2c1 [compound 67]
  IC50: < 1000 nM

## COCCCCOc1ccc2cc3c(=O)[nH]c(=O)nc-3oc2c1F [compound 68]
  IC50: < 1000 nM
